The source of these data is patent US20190336489A1, “NON PEPTIDE HETEROBIVALENT MOLECULES FOR TREATING INFLAMMATORY DISEASES” (GLAXOSMITHKLINE INTELLECTUAL PROPERTY DEVELOPMENT LIMITED, priority 2017, published 2019).

Each structure is given as a SMILES string. Marks after values point to notes of the source that are not given here.

Holding throughout (type): cell-based
Assay [1] deals with T1, CCR1 (Homo sapiens, UniProt P32246).
T1 construct: expressed in transfected cells; host or cells: CHOK1
T1 sequence (P32246 1-355): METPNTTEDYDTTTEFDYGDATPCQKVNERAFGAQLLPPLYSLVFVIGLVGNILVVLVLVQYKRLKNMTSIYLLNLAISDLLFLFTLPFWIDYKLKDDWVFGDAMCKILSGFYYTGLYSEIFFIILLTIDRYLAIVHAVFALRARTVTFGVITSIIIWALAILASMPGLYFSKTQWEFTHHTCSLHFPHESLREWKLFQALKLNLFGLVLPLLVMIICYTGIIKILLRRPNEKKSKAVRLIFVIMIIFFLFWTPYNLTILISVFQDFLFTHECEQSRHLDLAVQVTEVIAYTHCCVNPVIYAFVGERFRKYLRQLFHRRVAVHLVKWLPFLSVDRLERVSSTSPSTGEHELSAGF
The assay can be described thus: Antibody Dependent Cellular Cytotoxicity (ADCC) reporter assay, CCR1 target cells. Conditions: CHOK1 cells overexpressing CCR1; for EC50: Jurkat FcgRIIIa NFAT-luciferase reporter cells, EC50 class, read-out: ADCC potency; for ADCC efficacy: maximum signal:background (S/B). An excerpt:
(§1) The compounds described herein have been characterized in an ADCC reporter assay (see Section 1.2 ADCC reporter for protocol). […] Furthermore, the assay also confirms that this formed complex can engage and activate the Fc receptors on immune cells. Lastly, the assay provides both potency (EC50) and efficacy (signal to background ratio) for each compound in a dose dependant manner.
(§2) This assay has four components • 1) Heterobivalent Compound consisting of a targeting ligand and a hapten connected by a linker (ranging from 10 uM-1 pM) • 2) A hapten antibody with functional Fc domain (typical concentrations are 0.01 ug/mL-200 ug/mL) • 3) Target cells—CHOK1 cells engineered to overexpress either CCR1, CCR2, or CCR3, or CEMNKR cells engineered to overexpress CCR5 (typically 1000-20,000 cells per well) • 4) Reporter cells—Jurkat cells engineered to express FcgRIIIa (ADCC reporter assay) and with a reporter gene (luciferase) under the control of the NFAT promoter (typically 3000-75,000 cells per well)
(§3) Reagents are combined in final volume of 20 uL in 384-well tissue culture treated plated.
(§4) All components are incubated together for ˜12-18 hours. Add BioGlo Detection reagent (from Promega) to lyse the cells and provide substrate for the luciferase reporter protein. Signal is measured on a microplate reader capable of measuring luminescence. Signal:Background is calculated by dividing the signal of a test well by the signal obtained when no compound is included in the assay. EC50 calculations were done using Graphpad Prism Software, specifically a nonlinear regression curve fit (Y=Bottom+(Top−Bottom)/(1+10^((Log EC50−X)*HillSlope)))
Background: In a reporter assay the amount or activity of a reporter protein is the signal.

Assay [2] deals with T2, CCR3 (Homo sapiens, UniProt P51677).
T2 construct: expressed in transfected cells; host or cells: CHOK1
T2 sequence (P51677 1-355): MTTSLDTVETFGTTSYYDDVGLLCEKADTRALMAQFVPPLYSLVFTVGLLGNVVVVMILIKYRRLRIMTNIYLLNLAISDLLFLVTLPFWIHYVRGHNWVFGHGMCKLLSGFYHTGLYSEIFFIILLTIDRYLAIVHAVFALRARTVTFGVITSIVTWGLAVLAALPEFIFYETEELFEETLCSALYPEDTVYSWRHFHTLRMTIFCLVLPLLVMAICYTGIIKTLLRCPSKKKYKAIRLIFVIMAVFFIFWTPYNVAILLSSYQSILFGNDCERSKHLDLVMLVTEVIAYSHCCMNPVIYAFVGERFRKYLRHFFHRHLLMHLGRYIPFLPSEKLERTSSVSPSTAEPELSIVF
The assay can be described thus: Antibody Dependent Cellular Cytotoxicity (ADCC) reporter assay, CCR3 target cells. The following applies: for EC50 / ADCC efficacy: CHOK1 cells overexpressing CCR3; for EC50: Jurkat FcgRIIIa NFAT-luciferase reporter cells, EC50 class, read-out: ADCC potency; for ADCC efficacy: maximum signal:background (S/B).
Source text: as §1, §2, §3, §4

In assay [3] the target is T3, CCR2 (Homo sapiens, UniProt P41597).
T3 construct: expressed in transfected cells; host or cells: CHOK1
T3 sequence (P41597 whole entry, species assumed): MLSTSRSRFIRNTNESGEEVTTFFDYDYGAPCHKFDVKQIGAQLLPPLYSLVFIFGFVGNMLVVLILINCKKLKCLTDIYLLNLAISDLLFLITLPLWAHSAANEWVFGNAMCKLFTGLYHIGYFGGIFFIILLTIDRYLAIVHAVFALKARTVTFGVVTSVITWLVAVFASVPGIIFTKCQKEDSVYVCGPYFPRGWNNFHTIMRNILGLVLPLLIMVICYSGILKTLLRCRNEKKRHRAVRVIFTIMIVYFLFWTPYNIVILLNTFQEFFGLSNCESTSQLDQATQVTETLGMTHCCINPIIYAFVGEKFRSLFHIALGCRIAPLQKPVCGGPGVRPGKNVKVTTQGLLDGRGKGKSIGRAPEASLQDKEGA
As to the kind of experiment: Antibody Dependent Cellular Cytotoxicity (ADCC) reporter assay, CCR2 target cells. Conditions: CHOK1 cells overexpressing CCR2.
Source text: as §1, §2, §3, §4

Take `CC(C)[C@@H](NC(=O)c1cccc(C(=O)NCCOCCOCCOCCOCCOCCOCCOCCOCCOCCOCCOCCNC(=O)CCCC[C@@H]2SC[C@@H]3NC(=O)N[C@@H]32)c1)C(=O)N1CCC(c2ccc(Cl)cc2)CC1` [Compound 1, N1-((R)-1-(4-(4-chlorophenyl)piperidin-1-yl)-3-methyl-1-oxobutan-2-yl)-N3-(37-oxo-41-((3aS,4S,6aR)-2-oxohexahydro-1H-thieno[3,4-d]imidazol-4-yl)-3,6,9,12,15,18,21,24,27,30,33-undecaoxa-36-azahentetracontyl)isophthalamide]: in assay [1], the EC50 was 10 to 100 nM and the ADCC efficacy result is on record as “+++^d (maximum signal:background > 11 = +++)”.
For `O=C(NCc1ccc(C(=O)NCCCOCCOCCOCCCNc2ccc([N+](=O)[O-])cc2[N+](=O)[O-])cc1)NC[C@@H]1CN(Cc2ccc(Cl)c(Cl)c2)CCO1` [Compound 21, (R)-4-((3-((4-(3,4-dichlorobenzyl)morpholin-2-yl)methyl)ureido)methyl)-N-(3-(2-(2-(3-((2,4-dinitrophenyl)amino)propoxy)ethoxy)ethoxy)propyl)benzamide], in assay [2], the EC50 was < 1 nM and the ADCC efficacy entry was “+++^f (Maximum S:B > 20 = +++)”.
On to `CC(C)[C@@H](NC(=O)c1cccc(C(=O)NCCOCCOCCOCCOCCC(=O)NCCOCCOCCOCCOCCOCCOCCOCCOCCOCCOCCOCCNC(=O)CCCC[C@@H]2SC[C@@H]3NC(=O)N[C@@H]32)c1)C(=O)N1CCC(c2ccc(Cl)cc2)CC1` [Compound 4, N1-((R)-1-(4-(4-chlorophenyl)piperidin-1-yl)-3-methyl-1-oxobutan-2-yl)-N3-(15,53-dioxo-57-((3aS,4S,6aR)-2-oxohexahydro-1H-thieno[3,4-d]imidazol-4-yl)-3,6,9,12,19,22,25,28,31,34, 37,40,43,46,49-pentadecaoxa-16,52-diazaheptapentacontyl)isophthalamide], for which, in assay [1], the EC50 was 100 to 1000 nM and the ADCC efficacy result was “++^d (between 9-11 = ++)”.
The matching figures for `CC(C)[C@@H](NC(=O)c1cccc(C(=O)NCCOCCOCCOCCOCCNC(=O)CCCC[C@@H]2SC[C@@H]3NC(=O)N[C@@H]32)c1)C(=O)N1CCC(c2ccc(Cl)cc2)CC1` [Compound 2, N1-((R)-1-(4-(4-chlorophenyl)piperidin-1-yl)-3-methyl-1-oxobutan-2-yl)-N3-(16-oxo-20-((3aS,4S,6aR)-2-oxohexahydro-1H-thieno[3,4-d]imidazol-4-yl)-3,6,9,12-tetraoxa-15-azaicosyl)isophthalamide]: 100 to 1000 nM and “++^d (between 9-11 = ++)”.
On to `CC(C)(C)N1CCNC(C(=O)N2CCN(C(=O)Nc3nc(C(F)(F)F)c(Cl)s3)C(CCOC(=O)NCCOCCOCCOCCOCCOCCOCCOCCOCCOCCNc3ccc([N+](=O)[O-])cc3[N+](=O)[O-])C2)C1` (mixture of isomers) [Compound 18, 2-(4-(4-(Tert-butyl)piperazine-2-carbonyl)-1-((5-chloro-4-(trifluoromethyl)thiazol-2-yl)carbamoyl)piperazin-2-yl)ethyl (29-((2,4-dinitrophenyl)amino)-3,6,9,12,15,18,21,24,27-nonaoxanonacosyl)carbamate], for which, in assay [3] (Jurkat FcgRIIIa NFAT-luciferase reporter cells, EC50 class, read-out: ADCC potency), the EC50 was < 1 nM. For the same molecule, the ADCC efficacy entry in assay [3] (maximum signal:background (S/B)) was “+++^e (Maximum Signal:Background > 10 = +++)”. For the same molecule, in assay [2] (ADCC reporter assay), the efficacy signal entry is “robust” and the potency entry is reported as “nanomolar range”.
Turning to `O=C(CCC(=O)N[C@H]1CC[C@H](NC(=O)c2ccc(CNC(=O)NC[C@H]3CN(Cc4ccc(Cl)c(Cl)c4)CCO3)cc2)CC1)NCCCOCCOCCOCCCNc1ccc([N+](=O)[O-])cc1[N+](=O)[O-]` [Compound 23, N1-((Trans)-4-(4-((3-(((S)-4-(3,4-Dichlorobenzyl)morpholin-2-yl)methyl)ureido)methyl)benzamido)cyclohexyl)-N4-(3-(2-(2-(3-((2,4-dinitrophenyl)amino)propoxy)ethoxy)ethoxy)propyl)succinamide], in assay [2], the EC50 was < 1 nM and the ADCC efficacy entry is given as “+++^f (Maximum S:B > 20 = +++)”.
As for `CCCCN1C(=O)[C@@H]([C@H](O)C2CCCCC2)NC(=O)C12CCN(Cc1ccc(Oc3ccc(C(=O)NCCOCCOCCOCCOCCOCCOCCOCCOCCOCCNC(=S)Nc4ccc5c(c4)C(=O)OC54c5ccc(O)cc5Oc5cc(O)ccc54)cc3)cc1)CC2` [Compound 25, 4-(4-(((R)-1-butyl-3-((R)-cyclohexyl(hydroxy)methyl)-2,5-dioxo-1,4,9-triazaspiro[5.5]undecan-9-yl)methyl)phenoxy)-N-(1-((3′,6′-dihydroxy-3-oxo-3H-spiro[isobenzofuran-1,9′-xanthen]-5-yl)amino)-1-thioxo-5,8,11,14,17,20,23,26,29-nonaoxa-2-azahentriacontan-31-yl)benzamide], in assay [2], the EC50 lay within 1 to 10 nM and the ADCC efficacy entry was “+++^f (Maximum S:B > 20 = +++)”.
The matching figures for `O=C(NCc1ccc(C(=O)NCCCOCCOCCOCCCNC(=S)Nc2ccc(-c3c4ccc(=O)cc-4oc4cc(O)ccc34)c(C(=O)O)c2)cc1)NC[C@H]1CN(Cc2ccc(Cl)c(Cl)c2)CCO1` [Compound 22, (S)-5-(3-(1-(4-((3-((4-(3,4-Dichlorobenzyl)morpholin-2-yl)methyl)ureido)methyl)phenyl)-1-oxo-6,9,12-trioxa-2-azapentadecan-15-yl)thioureido)-2-(6-hydroxy-3-oxo-3H-xanthen-9-yl)benzoic acid]: 1 to 10 nM and “+++^f (Maximum S:B > 20 = +++)”.
Take `CC(C)[C@@H](NC(=O)c1cccc(C(=O)NCCOCCOCCOCCOCCOCCOCCOCCOCCC(=O)NCCOCCOCCOCCOCCOCCOCCOCCOCCOCCOCCOCCNC(=O)CCCC[C@@H]2SC[C@@H]3NC(=O)N[C@@H]32)c1)C(=O)N1CCC(c2ccc(Cl)cc2)CC1` [Compound 5, N1-((R)-1-(4-(4-chlorophenyl)piperidin-1-yl)-3-methyl-1-oxobutan-2-yl)-N3-(27,65-dioxo-69-((3aS,4S,6aR)-2-oxohexahydro-1H-thieno[3,4-d]imidazol-4-yl)-3,6,9,12,15,18,21,24,31,34, 37,40,43,46,49,52,55,58,61-nonadecaoxa-28,64-diazanonahexacontyl)isophthalamide]: in assay [1], the EC50 was in the range of 100 to 1000 nM and the ADCC efficacy result is recorded as “+^d (between 6-8 = +)”.
For `CC(C)[C@@H](NC(=O)c1cccc(C(=O)NCCOCCOCCOCCOCCOCCOCCOCCNC(=O)CCCC[C@@H]2SC[C@@H]3NC(=O)N[C@@H]32)c1)C(=O)N1CCC(c2ccc(Cl)cc2)CC1` [Compound 3, N1-((R)-1-(4-(4-chlorophenyl)piperidin-1-yl)-3-methyl-1-oxobutan-2-yl)-N3-(25-oxo-29-((3aS,4S,6aR)-2-oxohexahydro-1H-thieno[3,4-d]imidazol-4-yl)-3,6,9,12,15,18,21-heptaoxa-24-azanonacosyl)isophthalamide], in that order: 10 to 100 nM and “++^d (between 9-11 = ++)”.
